Source: patent publication US20230399341A1, “7-PHENYL SUBSTITUTED 2-AMINOQUINAZOLINE INHIBITORS OF HPK1” (MERCK SHARP & DOHME LLC, priority 2020, published 2023)

Target: T1, Human HPK1, catalytic domain (Homo sapiens, UniProt Q92918)
T1 sequence (Q92918 1-346): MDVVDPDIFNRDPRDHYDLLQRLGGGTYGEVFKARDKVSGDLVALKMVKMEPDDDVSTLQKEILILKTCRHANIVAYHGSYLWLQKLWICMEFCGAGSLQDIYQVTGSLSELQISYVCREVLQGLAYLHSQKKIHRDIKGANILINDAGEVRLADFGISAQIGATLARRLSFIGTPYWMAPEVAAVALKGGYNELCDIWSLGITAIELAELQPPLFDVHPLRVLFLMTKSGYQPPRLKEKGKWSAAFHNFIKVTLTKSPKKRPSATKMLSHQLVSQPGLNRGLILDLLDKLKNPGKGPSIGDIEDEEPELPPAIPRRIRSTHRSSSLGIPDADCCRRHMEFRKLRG
Test: HPK1-SLP76 TR-FRET Assay
Assay type: biochemical
Settings: 75 pM HPK1, ATP 10 uM, SLP76 10 nM, 30 min pre-incubation, 60 min reaction

IC50	SMILES
735 nM	COc1cc2c(cc1Nc1ncc3ccc(-c4cnc5c(C#N)cnn5c4)cc3n1)CN(C)CC2 [Compound 1-22, 6-{2-[(6-methoxy-2-methyl-1,2,3,4-tetrahydroisoquinolin-7-yl)amino]quinazolin-7-yl}pyrazolo[1,5-a]pyrimidine-3-carbonitrile]
693 nM	CCNC(=O)c1ccc(-c2ccc3cnc(Nc4cc5c(cc4OC)CCN(C)C5)nc3c2)cn1 [Compound 1-23, N-ethyl-5-{2-[(6-methoxy-2-methyl-1,2,3,4-tetrahydroisoquinolin-7-yl)amino]quinazolin-7-yl}pyridine-2-carboxamide]
10.5 nM	COc1cc2c(cc1Nc1ncc3ccc(-c4cncc5cccnc45)cc3n1)CN(C)CC2 [Compound 1-24, N-(6-methoxy-2-methyl-1,2,3,4-tetrahydroisoquinolin-7-yl)-7-(1,6-naphthyridin-8-yl)quinazolin-2-amine]
20 nM	COc1cc2c(cc1Nc1ncc3ccc(-c4cnc5cccnc5c4)cc3n1)CN(C)CC2 [Compound 1-25, N-(6-methoxy-2-methyl-1,2,3,4-tetrahydroisoquinolin-7-yl)-7-(,15-naphthyridin-3-yl)quinazolin-2-amine]
10.8 nM	COc1cc2c(cc1Nc1ncc3ccc(-c4cnn(C(F)F)c4)cc3n1)CN(C)CC2 [Compound 1-26, 7-[1-(difluoromethyl)-1H-pyrazol-4-yl]-N-(6-methoxy-2-methyl-1,2,3,4-tetrahydroisoquinolin-7-yl)quinazolin-2-amine]
9.91 nM	COc1cc2c(cc1Nc1ncc3ccc(-c4ccc(N)nc4)cc3n1)CNCC2 [Compound 1-27, 7-(6-aminopyridin-3-yl)-N-(6-methoxy-1,2,3,4-tetrahydroisoquinolin-7-yl)quinazolin-2-amine]
198 nM	CNC(=O)c1ccc(-c2ccc3cnc(Nc4cc5c(cc4OC)CCNC5)nc3c2)cn1 [Compound 1-28, 5-{2-[(6-methoxy-1,2,3,4-tetrahydroisoquinolin-7-yl)amino]quinazolin-7-yl}-N-methylpyridine-2-carboxamide]
85.8 nM	COc1cc2c(cc1Nc1ncc3ccc(-c4cnc5c(c4)OCCN5C)cc3n1)CNCC2 [Compound 1-29, N-(6-methoxy-1,2,3,4-tetrahydroisoquinolin-7-yl)-7-(4-methyl-3,4-dihydro-2H-pyrido[3,2-b][1,4]oxazin-7-yl)quinazolin-2-amine]
45.5 nM	COc1cc2c(cc1Nc1ncc3ccc(-c4ccc(NC(C)=O)nc4)cc3n1)CNCC2 [Compound 1-30, N-(5-{2-[(6-methoxy-1,2,3,4-tetahydroisoquinolin-7-yl)amino]quinazolin-7-yl}pyridin-2-yl)acetamide]
204 nM	COc1cc2c(cc1Nc1ncc3ccc(-c4cccc(N)c4C)cc3n1)CNCC2 [Compound 1-31, 7-(3-amino-2-methylphenyl)-N-(6-methoxy-1,2,3,4-tetrahydroisoquinolin-7-yl)quinazolin-2-amine]
108 nM	COc1cc2c(cc1Nc1ncc3ccc(-c4ccc(S(N)(=O)=O)cc4C)cc3n1)CNCC2 [Compound 1-32, 4-{2-[(6-methoxy-1,2,3,4-tetrahydroisoquinolin-7-yl)amino]quinazolin-7-yl}-3-methylbenzene-1-sulfonamide]
136 nM	COc1cc2c(cc1Nc1ncc3ccc(-c4ccc(C#N)cc4C)cc3n1)CNCC2 [Compound 1-33, 4-{2-[(6-methoxy-1,2,3,4-tetrahydroisoquinolin-7-yl)amino]quinazolin-7-yl}-3-methylbenzonitrile]
1.49 nM	COc1cc2c(cc1Nc1ncc3ccc(-c4cnn(C)c4)cc3n1)CNCC2 [Compound 1-34, N-(6-methoxy-1,2,3,4-tetrahydroisoquinolin-7-yl)-7-(1-methyl-1H-pyrazol-4-yl)quinazolin-2-amine]
0.689 nM	COc1cc2c(cc1Nc1ncc3ccc(-c4cnn5c4CCC5)cc3n1)CNCC2 [Compound 1-35, 7-(5,6-dihydro-4H-pyrrolo[1,2-b]pyrazol-3-yl)-N-(6-methoxy-1,2,3,4-tetrahydroisoquinolin-7-yl)quinazolin-2-amine]
182 nM	COc1cc2c(cc1Nc1ncc3ccc(-c4cncc(C#N)c4)cc3n1)CNCC2 [Compound 1-36, 5-{2-[(6-methoxy-1,2,3,4-tetrahydroisoquinolin-7-yl)amino]quinazolin-7-yl}pyridine-3-carbonitrile]
27.9 nM	COc1cc2c(cc1Nc1ncc3ccc(-c4cncc(NS(C)(=O)=O)c4)cc3n1)CNCC2 [Compound 1-37, N-(5-{2-[(6-methoxy-1,2,3,4-tetrahydroisoquinolin-7-yl)amino]quinazolin-7-yl}pyridin-3-yl)methanesulfonamide]
17.9 nM	COc1cc2c(cc1Nc1ncc3ccc(-c4cnccc4Cl)cc3n1)CNCC2 [Compound 1-38, 7-(4-chloropyridin-3-yl)-N-(6-methoxy-1,2,3,4-tetrahydroisoquinolin-7-yl)quinazolin-2-amine]

IC50	SMILES
34.8 nM	COc1ccc(-c2ccc3cnc(Nc4cc5c(cc4OC)CCNC5)nc3c2)cn1 [Compound 1-39, 7-(6-methoxypyridin-3-yl)-N-(6-methoxy-1,2,3,4-tetrahydroisoquinolin-7-yl)quinazolin-2-amine]
8.94 nM	COc1cc2c(cc1Nc1ncc3ccc(-c4cccnc4)cc3n1)CNCC2 [Compound 1-40, N-(6-methoxy-1,2,3,4-tetrahydroisoquinolin-7-yl)-7-(pyridin-3-yl)quinazolin-2-amine]
9.67 nM	COc1cc2c(cc1Nc1ncc3ccc(-c4cncc(C)c4)cc3n1)CNCC2 [Compound 1-41, N-(6-methoxy-1,2,3,4-tetrahydroisoquinolin-7-yl)-7-(5-methylpyridin-3-yl)quinazolin-2-amine]
38.5 nM	COc1cc2c(cc1Nc1ncc3ccc(-c4cncc(N5CCOCC5)c4)cc3n1)CNCC2 [Compound 1-42, N-(6-methoxy-1,2,3,4-tetrahydroisoquinolin-7-yl)-7-[5-(morpholin-4-yl)pyridin-3-yl]quinazolin-2-amine]
82.8 nM	COc1cc2c(cc1Nc1ncc3ccc(-c4cncc(S(C)(=O)=O)c4)cc3n1)CNCC2 [Compound 1-43, N-(6-methoxy-1,2,3,4-tetrahydroisoquinolin-7-yl)-7-[5-(methylsulfonyl)pyridin-3-yl]quinazolin-2-amine]
9.45 nM	COc1cncc(-c2ccc3cnc(Nc4cc5c(cc4OC)CCNC5)nc3c2)c1 [Compound 1-44, 7-(5-methoxypyridin-3-yl)-N-(6-methoxy-1,2,3,4-tetrahydroisoquinolin-7-yl)quinazolin-2-amine]
0.885 nM	COc1cc2c(cc1Nc1ncc3ccc(-c4cncc5[nH]ccc45)cc3n1)CNCC2 [Compound 1-45, N-(6-methoxy-1,2,3,4-tetrahydroisoquinolin-7-yl)-7-(1H-pyrrolo[2,3-c]pyridin-4-yl)quinazolin-2-amine]
59.4 nM	COc1cc2c(cc1Nc1ncc3ccc(-c4ccncc4)cc3n1)CNCC2 [Compound 1-46, N-(6-methoxy-1,2,3,4-tetrahydroisoquinolin-7-yl)-7-(pyridin-4-yl)quinazolin-2-amine]
273 nM	COc1cc2c(cc1Nc1ncc3ccc(-c4cncc(C(=O)N5CCOCC5)c4)cc3n1)CNCC2 [Compound 1-47, (5-{2-[(6-methoxy-1,2,3,4-tetrahydroisoquinolin-7-yl)amino]quinazolin-7-yl}pyridin-3-yl)(morpholin-4-yl)methanone]
387 nM	COc1cc2c(cc1Nc1ncc3ccc(-c4ccc(NCCN5CCOCC5)nc4)cc3n1)CNCC2 [Compound 1-48, N-(6-methoxy-1,2,3,4-tetrahydroisoquinolin-7-yl)-7-(6-{[2-(morpholin-4-yl)ethyl]amino}pyridin-3-yl)quinazolin-2-amine]
3.25 nM	COc1cc2c(cc1Nc1ncc3ccc(-c4cncc(CN)c4)cc3n1)CNCC2 [Compound 1-49, 7-[5-(aminomethyl)pyridin-3-yl]-N-(6-methoxy-1,2,3,4-tetrahydroisoquinolin-7-yl)quinazolin-2-amine]
5.9 nM	COc1cc2c(cc1Nc1ncc3ccc(-c4cncc(N5CCNCC5)c4)cc3n1)CNCC2 [Compound 1-50, N-(6-methoxy-1,2,3,4-tetrahydroisoquinolin-7-yl)-7-[5-(piperazin-1-yl)pyridin-3-yl]quinazolin-2-amine]
48 nM	COc1cc2c(cc1Nc1ncc3ccc(-c4cncc(NS(=O)(=O)C(C)C)c4)cc3n1)CNCC2 [Compound 1-51, N-(5-{2-[(6-methoxy-1,2,3,4-tetrahydroisoquinolin-7-yl)amino]quinazolin-7-yl}pyridin-3-yl)propane-2-sulfonamide]
11 nM	CCC(=O)Nc1cncc(-c2ccc3cnc(Nc4cc5c(cc4OC)CCNC5)nc3c2)c1 [Compound 1-52, N-(5-{2-[(6-methoxy-1,2,3,4-tetrahydroisoquinolin-7-yl)amino]quinazolin-7-yl}pyridin-3-yl)propanamide]
5.6 nM	COc1cc2c(cc1Nc1ncc3ccc(-c4cncc(CO)c4)cc3n1)CNCC2 [Compound 1-53, (5-{2-[(6-methoxy-1,2,3,4-tetrahydroisoquinolin-7-yl)amino]quinazolin-7-yl}pyridin-3-yl)methanol]
18.9 nM	COc1cc2c(cc1Nc1ncc3ccc(-c4cncc(N5CCN(C)CC5)c4)cc3n1)CNCC2 [Compound 1-54, N-(6-methoxy-1,2,3,4-tetrahydroisoquinolin-7-yl)-7-[5-(4-methylpiperazin-1-yl)pyridin-3-yl]quinazolin-2-amine]
52.8 nM	COc1cc2c(cc1Nc1ncc3ccc(-c4cccc(CC#N)c4)cc3n1)CNCC2 [Compound 1-55, (3-{2-[(6-methoxy-1,2,3,4-tetrahydroisoquinolin-7-yl)amino]quinazolin-7-yl}phenyl)acetonitrile]
